The text below walks through data of PubChem BioAssay AID1918935 (Molecular Pharmacology Branch, DTP, NCI, 2023).

Values joined by “and” are separate entries in the source; they are usually repeats but may differ in a detail not shown here. Identical values can stand only once.

The experiment has as its system 324938-238-R-J1-PDC complex spheroid viability. As to the kind of experiment: Anticancer human tumor 324938-238-R-J1-PDC patient-derived bladder carcinoma cell line growth inhibition. Conditions: for viability, T/C: stronger effect = lower value. From the text:
Multicellular complex tumor spheroid response to LSD1 Inhibitor Iadademstat in combination with a variety of drugs and investigational agents in selected tumor cell lines
The current study was undertaken to assess response to LSD1 inhibitors in combination with standard-of-care drugs and investigational agents in solid tumor complex spheroid models as well as in the K-562 leukemia. Complex spheroids include a stromal component modeled by human endothelial cells (HUVEC) and fibroblasts modeled by human mesenchymal stem cells (MSCs). The concentration ranges selected for each drug and investigational agent were based upon clinically achievable concentrations if the clinical Cmax of the agent was known.
Compounds. The drugs and investigational agents used in this study are listed on Table 1. All of the agents used, including staurosporine (NSC755774) and gemcitabine (NSC613327), were obtained from the Developmental Therapeutics Program, NCI. FDA-approved anticancer drugs are available from the NCI at http://dtp.nci.nih.gov/branches/dscb/oncology_drugset_explanation.html. Drugs and investigational agents were >95% pure by proton nuclear magnetic resonance (NMR) and liquid chromatography/mass spectrometry (LC/MS). Stock solutions were prepared at 400x in DMSO, stored at -70 degrees C, and diluted in fresh medium prior to their use. The final concentration of DMSO in cell culture wells never exceeded 0.25% (v/v). The FDA-approved anticancer drug set is available from the Developmental Therapeutics Program at https://dtp.cancer.gov/organization/dscb/obtaining/available_plates.htm. All drugs and investigational agents were tested over a range starting from a high concentration at or near the clinical Cmax and decreasing in half-log increments. If the clinical Cmax for an agent had not been determined, the highest concentration tested was 10 microM.
Cell Lines. The patient-derived cancer cell (PDC) lines: 292921-168-R-J2-PDC, K24384-001-R-PDC, and 521955-158-R2-J5-PDC pancreatic carcinomas, 556581-035-R-J1 ovarian carcinoma, 324938-238-R-J1-PDC, 855422-203-R-J1-PDC and 883617-216-R-J1-PDC urothelial bladder carcinomas, 743489-274-T-PDC renal cell carcinoma, 138582-R-J1 Merkel cell tumor, K60290-347-R-J1 and K57222-313-R-J1-PDC glioblastomas, 653999-131-R-J2-PDC, LG0703-F948-PDC, and 349418-098-R-PDC non-small cell lung carcinomas, 885512-296-R-J2-PDC, 171881-019-R-J1-PDC breast carcinomas and 186277-243-T-J2-PDC and 233499-124-R-J2-PDC colon carcinomas were obtained from the NCI Patient-Derived Models Repository (PDMR, https://pdmr.cancer.gov). The established cell lines NCI/ADR-RES (RRID:CVCL_14520 and OVCAR-5 (RRID:CVCL_1628) ovarian carcinomas, 786-O (RRID:CVCL_1051) and A498 (RRID:CVCL_A498) renal cell carcinoma, NCI-H211 (ATCC, cat. CRL-5824; RRID:CVCL_1529), NCI-H196 (ATCC, cat. CRL-5823, RRID:CVCL_1509), SW 1271 (ATCC, cat. CRL-2177, RRID:CVCL_1716) and NCI-H1876 (ATCC, cat. CRL-5902, RRID:CVCL_1503) small cell lung carcinomas, MDA-MB-231 (RRID:CVCL_0062) and MDA-MB-468 (RRID:CVCL_0419)breast carcinomas (10-12). Pooled donor human umbilical vein endothelial cells (HUVEC, Lonza, cat. CC-2519) and human mesenchymal stem cells (hMSC, Lonza, cat. PT-2501) were purchased from Lonza (Walkersville, MD).
Cell Culture. All cells were maintained in an incubator at 37 degrees C and 5% CO2 with 95% humidity. The PDC lines were cultured according to standard operating procedures established by the NCI PDMR (https://pdmr.cancer.gov). Briefly all PDCs were thawed and cultured in Matrigel-coated flasks prepared with a working solution of 1X Ham's F-12 nutrient mix, without supplementation (Invitrogen, Waltham, MA, cat. 11765054), 100 U/mL penicillin-streptomycin (Invitrogen, cat. 15140122), and 2.5% Matrigel (Corning Inc., Corning, NY, cat. 354248) for the first three passages. […]

[1] abbreviates: curve of first compound, second compound 0.1 µM.
Setting [2] is: curve of first compound, second compound 0.316 µM.
Where [3] appears, read: curve of first compound, second compound 1 µM.
Where [4] appears, read: curve of first compound, second compound 3.16 µM.
[5] abbreviates: curve of first compound, second compound 10 µM.
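Note: spheroids also contain HUVEC and human MSCs and agents combined with iadademstat; spheroids exposed to agents for 7 days before readout.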

In the case of `CC(C)CC(NC(=O)CNC(=O)c1cc(Cl)ccc1Cl)B1OC(=O)CC(CC(=O)O)(C(=O)O)O1` (centres undefined), the viability, T/C runs as follows: (compound 0.000316 µM) 104% and 111%; (compound 0.001 µM) 106% and 77.7%; (compound 0.00316 µM) 38.2% and 23.3%; (compound 0.01 µM) 5.09% and 2.42%; (compound 0.0316 µM) 0.23% and 0.77%; (compound 0.1 µM) 0.23% and 0.24%. For the same molecule, where the note is “curve of compound”, the IC50 was 2.58 nM and 1.79 nM.
With `O=C(C=Cn1cnc(-c2cc(C(F)(F)F)cc(C(F)(F)F)c2)n1)NNc1cnccn1`, the viability, T/C (compound 0.00316 µM) was 85.4% and 60.8%; the viability, T/C (compound 0.01 µM) was 44.7% and 28.6%; the viability, T/C (compound 0.0316 µM) was 17.7% and 14.8%; the viability, T/C (compound 0.1 µM) is 7.73% and 4.52%; the viability, T/C (compound 0.316 µM) is 4.23% and 3.45%; the viability, T/C (compound 1 µM) is 2.35% and 1.64%. In addition, the half-inhibitory concentration (IC50) (curve of compound) was 8.59 nM and 4.69 nM.
Turning to `CCc1c2c(nc3ccc(O)cc13)-c1cc3c(c(=O)n1C2)COC(=O)[C@]3(O)CC` + NC1CC1c1ccc(-c2cccc(O)c2)cc1, the half-maximal inhibitory concentration (IC50) under setting [1] was < 0.949 nM; the IC50 under setting [2] was < 0.949 nM; the half-inhibitory concentration (IC50) under setting [3] is < 0.949 nM; the IC50 under setting [4] was < 0.949 nM; the half-inhibitory concentration (IC50) under setting [5] was < 0.949 nM. Moreover, the viability, T/C by setting is: (second compound 0.1 µM, first compound 0.000949 µM) 8.63%; (second compound 0.1 µM, first compound 0.003 µM) 8.28%; (second compound 0.1 µM, first compound 0.00949 µM) 6.38%; (second compound 0.1 µM, first compound 0.03 µM) 2.62%; (second compound 0.1 µM, first compound 0.0949 µM) 1.19%; (second compound 0.1 µM, first compound 0.3 µM) 0.47%. Further, the viability, T/C (second compound 0.316 µM, first compound 0.000949 µM) is 7.65%; the viability, T/C (second compound 0.316 µM, first compound 0.003 µM) was 7.41%; the viability, T/C (second compound 0.316 µM, first compound 0.00949 µM) was 5.98%; the viability, T/C (second compound 0.316 µM, first compound 0.03 µM) is 2.79%; the viability, T/C (second compound 0.316 µM, first compound 0.0949 µM) was 0.46%; the viability, T/C (second compound 0.316 µM, first compound 0.3 µM) was 0.55%. Further, the viability, T/C (second compound 1 µM, first compound 0.000949 µM) is 6.57%; the viability, T/C (second compound 1 µM, first compound 0.003 µM) was 8.14%; the viability, T/C (second compound 1 µM, first compound 0.00949 µM) is 6.37%; the viability, T/C (second compound 1 µM, first compound 0.03 µM) is 1.95%; the viability, T/C (second compound 1 µM, first compound 0.0949 µM) was 0.51%; the viability, T/C (second compound 1 µM, first compound 0.3 µM) is 0.15%. The viability, T/C is 6.75% (second compound 3.16 µM, first compound 0.000949 µM); 6.96% (second compound 3.16 µM, first compound 0.003 µM); 6.25% (second compound 3.16 µM, first compound 0.00949 µM); 2.46% (second compound 3.16 µM, first compound 0.03 µM); 0.53% (second compound 3.16 µM, first compound 0.0949 µM); 0.31% (second compound 3.16 µM, first compound 0.3 µM). The viability, T/C is, setting by setting: (second compound 10 µM, first compound 0.000949 µM) 10.5%; (second compound 10 µM, first compound 0.003 µM) 9.76%; (second compound 10 µM, first compound 0.00949 µM) 7.12%; (second compound 10 µM, first compound 0.03 µM) 2.62%; (second compound 10 µM, first compound 0.0949 µM) 0.17%; (second compound 10 µM, first compound 0.3 µM) 0.23%.
On to `CC(C)CC(NC(=O)CNC(=O)c1cc(Cl)ccc1Cl)B1OC(=O)CC(CC(=O)O)(C(=O)O)O1` (centres undefined) + NC1CCC(NC2CC2c2ccccc2)CC1, for which the concentration for half-maximal inhibition (IC50) came out at 2.3 nM under setting [1]; 1.97 nM under setting [2]; 1.98 nM under setting [3]; 1.72 nM under setting [4]; 1.75 nM under setting [5]. Further, the viability, T/C reads like this: (second compound 0.1 µM, first compound 0.000316 µM) 78.5%; (second compound 0.1 µM, first compound 0.001 µM) 76.7%; (second compound 0.1 µM, first compound 0.00316 µM) 39.9%; (second compound 0.1 µM, first compound 0.01 µM) 5.51%; (second compound 0.1 µM, first compound 0.0316 µM) 0.09%; (second compound 0.1 µM, first compound 0.1 µM) 0.14%. Also, the viability, T/C (second compound 0.316 µM, first compound 0.000316 µM) was 88.5%; the viability, T/C (second compound 0.316 µM, first compound 0.001 µM) is 68.9%; the viability, T/C (second compound 0.316 µM, first compound 0.00316 µM) is 37.8%; the viability, T/C (second compound 0.316 µM, first compound 0.01 µM) is 6.24%; the viability, T/C (second compound 0.316 µM, first compound 0.0316 µM) is 0.11%; the viability, T/C (second compound 0.316 µM, first compound 0.1 µM) is 0.14%. Further, the viability, T/C reads like this: (second compound 1 µM, first compound 0.000316 µM) 87.1%; (second compound 1 µM, first compound 0.001 µM) 62.5%; (second compound 1 µM, first compound 0.00316 µM) 44.2%; (second compound 1 µM, first compound 0.01 µM) 5.29%; (second compound 1 µM, first compound 0.0316 µM) 0.06%; (second compound 1 µM, first compound 0.1 µM) 0.13%. Besides, the viability, T/C (second compound 3.16 µM, first compound 0.000316 µM) is 80.2%; the viability, T/C (second compound 3.16 µM, first compound 0.001 µM) is 65.2%; the viability, T/C (second compound 3.16 µM, first compound 0.00316 µM) was 33%; the viability, T/C (second compound 3.16 µM, first compound 0.01 µM) is 3.57%; the viability, T/C (second compound 3.16 µM, first compound 0.0316 µM) is 0.05%; the viability, T/C (second compound 3.16 µM, first compound 0.1 µM) is 0.16%. In addition, the viability, T/C by setting is: (second compound 10 µM, first compound 0.000316 µM) 78.3%; (second compound 10 µM, first compound 0.001 µM) 76.2%; (second compound 10 µM, first compound 0.00316 µM) 22.7%; (second compound 10 µM, first compound 0.01 µM) 2.57%; (second compound 10 µM, first compound 0.0316 µM) 0.13%; (second compound 10 µM, first compound 0.1 µM) 0.21%.

As a reminder, the viability, T/C is the result in the treated group divided by that in the control group, in per cent. The IC50 is the concentration that inhibits the measured activity by half.
